Literature values, collected in US20050214389A1, “Beta-carotene enriched extract from water hyacinth eichhornia crassipes” (Council of Scientific and Industrial Research, priority 2004, published 2005).

System: polyamine oxidase
Details: purified polyamine oxidase from leaves of water hyacinth

Compound	inhibition of the enzyme
CCN(CC)CCCC(C)Nc1c2ccc(Cl)cc2nc2ccc(OC)cc12 (stereo not shown) [quinacrine]	strong inhibitors
O=C(O)c1cc[c]([Hg][Cl])cc1 [p-chloromercuribenzoate]	without effect
NCCCCCCCCN [Octamethylenediamine]	strong inhibitors

Same assay, conditions: substrate of purified polyamine oxidase from leaves of water hyacinth

Compound	Km [mM]
NCCCNCCCCNCCCN [spermine]	20
NCCCCNCCCN [spermidine]	28

System: Enterobacter sp. F2
Details: concentrations of from 10-7 to 10-2 mol/L

Compound	chemotaxis (attraction of F2)
NC(=O)CC[C@H](N)C(=O)O [glutamine]	not
O=C(O)[C@@H]1CCCN1 [proline]	not
N[C@@H](CO)C(=O)O [serine]	strongly attracted
CC(C)C[C@H](N)C(=O)O [leucine]	strongly attracted
C[C@H](N)C(=O)O [alanine]	strongly attracted
NC(=O)C[C@H](N)C(=O)O [asparagine]	not
CC[C@H](C)[C@H](N)C(=O)O [isoleucine]	not
N=C(N)NCCC[C@H](N)C(=O)O [arginine]	not
N[C@@H](Cc1c[nH]c2ccccc12)C(=O)O [tryptophan]	not
N[C@@H](Cc1ccc(O)cc1)C(=O)O [tyrosine]	not
NCC(=O)O [glycine]	strongly attracted
N[C@@H](Cc1ccccc1)C(=O)O [phenylalanine]	not
C[C@@H](O)[C@H](N)C(=O)O [threonine]	some degrees
CC(C)[C@H](N)C(=O)O [valine]	strongly attracted
N[C@@H](CCC(=O)O)C(=O)O [glutamate]	some degrees
N[C@@H](CS)C(=O)O [cysteine]	not
CSCC[C@H](N)C(=O)O [methionine]	strongly attracted
N[C@@H](Cc1c[nH]cn1)C(=O)O [histidine]	some degrees
NCCCC(=O)O [gamma amino butyric acid]	strongly attracted
NCCCC[C@H](N)C(=O)O [lysine]	not
